# Experimental data published in patent US7091033B2, “Array of toxicologically relevant canine genes and uses thereof” (Phase-1 Molecular Toxicology, Inc., priority 2000, dated 2006).
# Read-outs that look alike come from different tables or passages of the source.
# Tests used:
# Assay type in all cases: in vivo
# [1] = test system: Cytochrome P450 2B (gene expression); test: Canine array gene expression profile of liver from dog dosed with erythromycin estolate; conditions: dog, liver, 100 mg/kg
# Method: (§1) For liver or kidney, about 0.15-0.20 g of tissue was weighed and placed in a 15 ml conical tube. All tissue were kept on dry ice when other samples were being weighed.
# (§2) About 3.8 ml of RLT buffer was added to the tube containing the sample. The RLT buffer® from Qiagen can be prepared beforehand by adding 10 μl betamercaptoethanol to each 1.0 ml of lysis buffer needed. The tissue was homogenized using the rotor-stator homogenizer for 45 seconds. A IKA Ultra Turrax T25 homogenizer set at speed 4 with the S25N-10G dispersing element can be used. Alternatively, a Virtishear Cyclone 750W rotor/stator homogenizer (Virtis item #278077) can be used with the 7 mm microfine sawtooth shaft and generator (195 mm long with a processing range of 0.25 ml to 20 ml, item #372718). After homogenization, samples were stored on ice until all samples were homogenized. To clean the homogenizing tip between samples, the tip was first run for a few seconds in 95% ethanol and then rinsed by squirting with fresh 95% ethanol. This process was repeated with nanopure water.
# (§3) The tissue lysate was centrifuged at room temperature for 10 minutes at 3700-3800 rpm in a Beckman GS-6 (or equivalent) centrifuge to remove nuclei thus reducing DNA contamination.
# (§4) The supernatant of the lysate was transferred to a clean 15 ml conical tubes containing an equal volume of 70% EtOH in DEPC treated H2O, being careful not to include any of the pellet or fatty layer and mixed. About 3.8 ml of sample was added to the RNeasy spin column placed in a 15 ml centrifuge tube and centrifuged at 3000×g (3690-3710 rpm, Beckman GS-6) for 5 min. The flow-through was discarded. The remaining sample was added to the appropriate column and spun at 3000×g for 5 minutes and the flow-through was discarded.
# (§5) About 4.0 ml of Buffer RW1 (Qiagen®) was added to the column and spun as before then about 2.5 ml of buffer RPE (Qiagen®) was added to column and spun at 3000×g (3690-3710 rpm, Beckman GS-6) for 2 minutes. In this example, RPE buffer was supplied as a concentrate so 4 volumes of 95% EtOH was added before use. For the midi kit, about 220 ml of 95% EtOH would be added to 55 ml of RPE. Another 2.5 ml of buffer RPE was added and spun for 5 minutes to also dry out column. The column, including the tip, should be dry for the next elution step.
# (§6) For elution, the column that has the RNA bound to a clean 15 ml tube was transferred and 200 μl of RNase-free water was added to the column, allowed to sit for 1 minute, and spun for 3 minutes at 3000×g (3690-3710 rpm, Beckman GS6). This step was repeated into the same tube but with 200 μl RNase-free water.
# (§7) Liver and kidney organs were isolated from a dog which was dosed with erythromycin esolate at 100 mg/kg/day for 2 or 10 days. The dog was euthanized 16 hours after the last dosage and the organs were harvested according to standard sterile procedure. RNA was isolated from the kidney and liver as detailed in Example 1. cDNA was made from the RNA and used as probes as detailed in the Examples above.
# [2] = test system: Cytochrome P450 2C21 (gene expression); test: as above; conditions: dog, liver, 100 mg/kg
# Method: as §1, §2, §3, §4, §5, §6, §7
# [3] = test system: Cytochrome P450 2D (gene expression); test: as above; conditions: dog, liver, 100 mg/kg
# Method: as §1, §2, §3, §4, §5, §6, §7
# Cytochrome P450 2C21 = test: Canine array gene expression profile of kidney from dog dosed with erythromycin estolate; conditions: dog, kidney, 100 mg/kg
# Method: as §1, §2, §3, §4, §5, §6, §7
# Cytochrome P450 2C41 = test: as above; conditions: dog, kidney, 100 mg/kg
# Method: as §1, §2, §3, §4, §5, §6, §7
# [4] = test system: Cytochrome P450 2D (gene expression); test: as above; conditions: dog, kidney, 100 mg/kg
# Method: as §1, §2, §3, §4, §5, §6, §7
# Cytochrome P450 3A = test: as above; conditions: dog, kidney, 100 mg/kg
# Method: as §1, §2, §3, §4, §5, §6, §7
# Glucose transporter = test: as above; conditions: dog, kidney, 100 mg/kg
# Method: as §1, §2, §3, §4, §5, §6, §7
# [5] = test system: Glutathione S-transferase alpha subunit; test: as above; conditions: dog, kidney, 100 mg/kg
# Method: as §1, §2, §3, §4, §5, §6, §7
# [6] = test system: Multidrug resistant protein-1; test: as above; conditions: dog, kidney, 100 mg/kg
# Method: as §1, §2, §3, §4, §5, §6, §7
# [7] = test system: canine kidney gene expression; test: as above; conditions: Canis lupus familiaris, 240 h, 10 days
# Method: as §1, §2, §3, §4, §5, §6, §7
smiles,measurement,setting,value
CCC(=O)O[C@H]1[C@H](O[C@@H]2[C@@H](C)[C@H](O[C@H]3C[C@@](C)(OC)[C@@H](O)[C@H](C)O3)[C@@H](C)C(=O)O[C@H](CC)[C@@](C)(O)[C@H](O)[C@@H](C)C(=O)[C@H](C)C[C@@]2(C)O)O[C@H](C)C[C@@H]1N(C)C [erythromycin estolate],fold induction at 10 days,[1],1.9
same,fold induction at 10 days,[2],1.3
same,fold induction at 10 days,[3],1.1
same,fold induction at 10 days,Cytochrome P450 2C21,1.1
same,fold induction at 10 days,Cytochrome P450 2C41,1.2
same,fold induction at 10 days,[4],1.1
same,fold induction at 10 days,Cytochrome P450 3A,1.3
same,fold induction at 10 days,Glucose transporter,1.1
same,fold induction at 10 days,[5],1.1
same,fold induction at 10 days,[6],1.2
same,fold induction at 100 mg/kg,[7]; read-out: Alkaline phosphatase fold induction,1.6
same,fold induction at 100 mg/kg,[7]; read-out: Angiopoietin-related protein 3 (ANGPTL3) fold induction,1
same,fold induction at 100 mg/kg,[7]; read-out: BRCA1 fold induction,1.2
same,fold induction at 100 mg/kg,[7]; read-out: Beta-glucuronidase fold induction,1.1
same,fold induction at 100 mg/kg,[7]; read-out: Catalase fold induction,1.2
same,fold induction at 100 mg/kg,[7]; read-out: Caveolin-1 fold induction,1
same,fold induction at 100 mg/kg,[7]; read-out: Caveolin-2 fold induction,1.6
same,fold induction at 100 mg/kg,[7]; read-out: Cubilin fold induction,1.1
same,fold induction at 100 mg/kg,[7]; read-out: Cytochrome c oxidase subunit VIIaL fold induction,1
same,fold induction at 100 mg/kg,[7]; read-out: Decorin fold induction,1.1
same,fold induction at 100 mg/kg,[7]; read-out: FGFR2 fold induction,1.1
same,fold induction at 100 mg/kg,[7]; read-out: GRP94 fold induction,1.1
same,fold induction at 100 mg/kg,[7]; read-out: Gadd45 fold induction,1
same,fold induction at 100 mg/kg,[7]; read-out: Glucose-regulated protein 94 #1 fold induction,1.4
same,fold induction at 100 mg/kg,[7]; read-out: N-cadherin fold induction,1.1
same,fold induction at 100 mg/kg,[7]; read-out: Phase-1 CCT-4 fold induction,1.1
same,fold induction at 100 mg/kg,[7]; read-out: Phase-1 CCT-8 fold induction,1.1
same,fold induction at 100 mg/kg,[7]; read-out: Phase-1 CCT-12 fold induction,1.1
same,fold induction at 100 mg/kg,[7]; read-out: Phase-1 CCT-13 fold induction,1
same,fold induction at 100 mg/kg,[7]; read-out: Phase-1 CCT-14 fold induction,1
same,fold induction at 100 mg/kg,[7]; read-out: Phase-1 CCT-16 fold induction,1
same,fold induction at 100 mg/kg,[7]; read-out: Phase-1 CCT-17 fold induction,1
same,fold induction at 100 mg/kg,[7]; read-out: Phase-1 CCT-18 fold induction,1.2
same,fold induction at 100 mg/kg,[7]; read-out: Phase-1 CCT-19 fold induction,1.2
same,fold induction at 100 mg/kg,[7]; read-out: Phase-1 CCT-27 fold induction,1.4
same,fold induction at 100 mg/kg,[7]; read-out: Phase-1 CCT-30 fold induction,1.3
same,fold induction at 100 mg/kg,[7]; read-out: Phase-1 CCT-31 fold induction,1.1
same,fold induction at 100 mg/kg,[7]; read-out: Phase-1 CCT-32 fold induction,1.1
same,fold induction at 100 mg/kg,[7]; read-out: Phase-1 CCT-33 fold induction,1.1
same,fold induction at 100 mg/kg,[7]; read-out: Phase-1 CCT-34 fold induction,1.1
same,fold induction at 100 mg/kg,[7]; read-out: Phase-1 CCT-36 fold induction,1
same,fold induction at 100 mg/kg,[7]; read-out: Phase-1 CCT-40 fold induction,1.2
same,fold induction at 100 mg/kg,[7]; read-out: Phase-1 CCT-41 fold induction,1.2
same,fold induction at 100 mg/kg,[7]; read-out: Phase-1 CCT-42 fold induction,1.1
same,fold induction at 100 mg/kg,[7]; read-out: Phase-1 CCT-43 fold induction,1.2
same,fold induction at 100 mg/kg,[7]; read-out: Phase-1 CCT-49 fold induction,1
same,fold induction at 100 mg/kg,[7]; read-out: Phase-1 CCT-50 fold induction,1.1
same,fold induction at 100 mg/kg,[7]; read-out: Phase-1 CCT-51 fold induction,1.2
same,fold induction at 100 mg/kg,[7]; read-out: Phase-1 CCT-52 fold induction,1.1
same,fold induction at 100 mg/kg,[7]; read-out: Phase-1 CCT-53 fold induction,1
same,fold induction at 100 mg/kg,[7]; read-out: Phase-1 CCT-55 fold induction,1.1
same,fold induction at 100 mg/kg,[7]; read-out: Phase-1 CCT-56 fold induction,1.1
same,fold induction at 100 mg/kg,[7]; read-out: Phase-1 CCT-58 fold induction,1.5
same,fold induction at 100 mg/kg,[7]; read-out: Phase-1 CCT-59 fold induction,1
same,fold induction at 100 mg/kg,[7]; read-out: Phase-1 CCT-60 fold induction,1.1
same,fold induction at 100 mg/kg,[7]; read-out: Phase-1 CCT-62 fold induction,1.1
same,fold induction at 100 mg/kg,[7]; read-out: Phase-1 CCT-65 fold induction,1.1
same,fold induction at 100 mg/kg,[7]; read-out: Phase-1 CCT-66 fold induction,1.1
same,fold induction at 100 mg/kg,[7]; read-out: Phase-1 CCT-73 fold induction,1.1
same,fold induction at 100 mg/kg,[7]; read-out: Phase-1 CCT-76 fold induction,1
same,fold induction at 100 mg/kg,[7]; read-out: Phase-1 CCT-82 fold induction,1
same,fold induction at 100 mg/kg,[7]; read-out: Phase-1 CCT-84 fold induction,1.1
same,fold induction at 100 mg/kg,[7]; read-out: Phase-1 CCT-87 fold induction,1.2
same,fold induction at 100 mg/kg,[7]; read-out: Phase-1 CCT-88 fold induction,1.2
same,fold induction at 100 mg/kg,[7]; read-out: Phase-1 CCT-89 fold induction,1.1
same,fold induction at 100 mg/kg,[7]; read-out: Phase-1 CCT-91 fold induction,1.1
same,fold induction at 100 mg/kg,[7]; read-out: Phase-1 CCT-93 fold induction,1
same,fold induction at 100 mg/kg,[7]; read-out: Proliferating cell nuclear antigen gene fold induction,1.1
same,fold induction at 100 mg/kg,[7]; read-out: Prostaglandin D synthase fold induction,1.2
same,fold induction at 100 mg/kg,[7]; read-out: Rab2 fold induction,1.2
same,fold induction at 100 mg/kg,[7]; read-out: Rab5 fold induction,1.1
same,fold induction at 100 mg/kg,[7]; read-out: Rab7 fold induction,1.4
same,fold induction at 100 mg/kg,[7]; read-out: Superoxide dismutase Mn fold induction,1.1
same,fold induction at 100 mg/kg,[7]; read-out: TFCOUP-related (probable steroid hormone receptor) fold induction,1.1
same,fold induction at 100 mg/kg,[7]; read-out: TPRD fold induction,1.1
same,fold induction at 100 mg/kg,[7]; read-out: UV excision repair protein RAD 23 (XP-C) fold induction,1.2
same,fold induction at 100 mg/kg,[7]; read-out: c-erb B-2 fold induction,1.4
same,fold induction at 100 mg/kg,[7]; read-out: p53 fold induction,1.4
same,fold induction at 100 mg/kg,"[7]; iv, read-out: ZAP36/annexin IV fold induction",1.6
